In US20260215430A1, “HERBICIDAL COMPOSITIONS” (SYNGENTA CROP PROTECTION AG, priority 2022, published 2026):

Assays:
AMAPA [1] = assay: Post-emergence study L-GLU+BIR, AMAPA control; format: in vivo, Amaranthus palmeri; conditions: 9 days after treatment
Source text: (§1) In a post-emergence study of AMPA, CHEAL, and Setaria faberi (SETFA) applications were done to 2 to 4-inch weeds with a spray volume of 15 gallons/acre. Treatments applied are described below, and further included an adjuvant.
The results of AMAPA control with L-GLU+BIR (bicyclopyrone) mixtures at 9 days after treatment are summarized in the below matrix, where bolded values represent synergy as calculated by Colby.

CHEAL [2] = assay: Post-emergence study L-GLU+MST, CHEAL control; format: in vivo, Chenopodium Album L.; conditions: 7 days after treatment
Source text: (§2) In a post-emergence study of AMPA, CHEAL, and ABUTH (Velvet Leaf (Abutilon theophrast)) applications were done to 2 to 4-inch weeds with a spray volume of 15 gallons/acre. Treatments applied are described below, and further included an adjuvant.
The results of CHEAL control with L-GLU+MST mixtures at 7 days after treatment are summarized in the below matrix, where bolded values represent synergy as calculated by Colby.

Grasses = assay: Postemergence field study on natural weed populations, grasses; format: in vivo; conditions: 28-31 DAA
ABUTH = assay: Post-emergence study L-GLU+MST, ABUTH control; format: in vivo, Velvet Leaf (Abutilon theophrast); conditions: 7 days after treatment
Source text: as §2
The results of ABUTH control with L-GLU+MST mixtures at 7 days after treatment are summarized in the below matrix, where bolded values represent synergy as calculated by Colby.

[3] = test system: SSBL (AMAPA, CHEAL, AMBEL); assay: Postemergence field study on natural weed populations, small seeded broadleaf; format: in vivo; conditions: 28-31 DAA
Description: In a postemergence field study on a natural weed populations. Herbicides were applied to 4-5″ weeds and efficacy was evaluated at 14 and 28-35 days after application. Rates were in g ai/ha. Data shown was small seeded broadleaf (SSBL; AMPA=Amaranthus palmeri; CHEAL=Chenopodium Album L.; AMBEL=Ambrosia Artemisiifolia L.) control 28-31 DAA. 100% was completely dead and 0% was no plant response.

SETFA = assay: Post-emergence study L-GLU+BIR, SETFA control; format: in vivo, Setaria faberi
Source text: as §1
The results of SETFA control with L-GLU+BIR (bicyclopyrone) mixtures at 7 and 14 days after treatment, respectively, are summarized in the below matrix, where bolded values represent synergy as calculated by Colby.

CHEAL [4] = assay: Post-emergence study L-GLU+BIR, CHEAL control; format: in vivo, Chenopodium Album L.; conditions: 9 days after treatment
Source text: as §1
The results of CHEAL control with L-GLU+BIR (bicyclopyrone) mixtures at 9 days after treatment are summarized in the below matrix, where bolded values represent synergy as calculated by Colby.

All weeds = assay: Postemergence field study on natural weed populations, all weeds; format: in vivo; conditions: 28-31 DAA
AMAPA [5] = assay: Post-emergence study L-GLU+MST, AMAPA control; format: in vivo, Amaranthus palmeri; conditions: 7 days after treatment
Source text: as §2
The results of AMAPA control with L-GLU+MST mixtures at 7 days after treatment are summarized in the below matrix, where bolded values represent synergy as calculated by Colby.

Compound: CP(=O)(O)CC[C@H](N)C(=O)O [L-glufosinate]
- % Control AMAPA (AMAPA [1]; L-GLU 5 g ai/ha alone): 17%
- % Control AMAPA (AMAPA [1]; L-GLU 10 g ai/ha alone): 23%
- % Control AMAPA (AMAPA [1]; L-GLU 30 g ai/ha alone): 57%
- % Control AMAPA (AMAPA [1]; L-GLU 60 g ai/ha alone): 87%
- % Control AMAPA (AMAPA [1]; L-GLU 120 g ai/ha alone): 93%
- % Control CHEAL (CHEAL [2]; L-GLU 5 g ai/ha alone): 3%
- % Control CHEAL (CHEAL [2]; L-GLU 10 g ai/ha alone): 8%
- % Control CHEAL (CHEAL [2]; L-GLU 30 g ai/ha alone): 72%
- % Control CHEAL (CHEAL [2]; L-GLU 60 g ai/ha alone): 90%
- % Control CHEAL (CHEAL [2]; L-GLU 120 g ai/ha alone): 90%
- control, Grasses (Grasses; L-glufosinate 328 g/ha): 83%
- % Control ABUTH (ABUTH; L-GLU 5 g ai/ha alone): 2%
- % Control ABUTH (ABUTH; L-GLU 10 g ai/ha alone): 8%
- % Control ABUTH (ABUTH; L-GLU 30 g ai/ha alone): 38%
- % Control ABUTH (ABUTH; L-GLU 60 g ai/ha alone): 67%
- % Control ABUTH (ABUTH; L-GLU 120 g ai/ha alone): 87%
- control, SSBL (AMAPA, CHEAL, AMBEL) ([3]; L-glufosinate 328 g/ha): 55%
- % Control SETFA (SETFA; L-GLU 5 g ai/ha alone, 14 Days after Treatment): 10%
- % Control SETFA (SETFA; L-GLU 5 g ai/ha alone, 7 days after treatment): 13%
- % Control SETFA (SETFA; L-GLU 10 g ai/ha alone, 14 Days after Treatment): 35%
- % Control SETFA (SETFA; L-GLU 10 g ai/ha alone, 7 days after treatment): 48%
- % Control SETFA (SETFA; L-GLU 30 g ai/ha alone, 14 Days after Treatment): 65%
- % Control SETFA (SETFA; L-GLU 30 g ai/ha alone, 7 days after treatment): 85%
- % Control SETFA (SETFA; L-GLU 60 g ai/ha alone, 14 Days after Treatment): 89%
- % Control SETFA (SETFA; L-GLU 60 g ai/ha alone, 7 days after treatment): 95%
- % Control SETFA (SETFA; L-GLU 120 g ai/ha alone, 14 Days after Treatment): 100%
- % Control SETFA (SETFA; L-GLU 120 g ai/ha alone, 7 days after treatment): 100%
- % Control CHEAL (CHEAL [4]; L-GLU 5 g ai/ha alone): 0%
- % Control CHEAL (CHEAL [4]; L-GLU 10 g ai/ha alone): 13%
- % Control CHEAL (CHEAL [4]; L-GLU 30 g ai/ha alone): 38%
- % Control CHEAL (CHEAL [4]; L-GLU 60 g ai/ha alone): 88%
- % Control CHEAL (CHEAL [4]; L-GLU 120 g ai/ha alone): 100%
- control, All weeds (All weeds; L-glufosinate 328 g/ha): 70%
- % Control AMAPA (AMAPA [5]; L-GLU 5 g ai/ha alone): 27%
- % Control AMAPA (AMAPA [5]; L-GLU 10 g ai/ha alone): 33%
- % Control AMAPA (AMAPA [5]; L-GLU 30 g ai/ha alone): 83%
- % Control AMAPA (AMAPA [5]; L-GLU 60 g ai/ha alone): 97%
- % Control AMAPA (AMAPA [5]; L-GLU 120 g ai/ha alone): 100%

Compound: CS(=O)(=O)c1ccc(C(=O)C2C(=O)CCCC2=O)c([N+](=O)[O-])c1 [Mesotrione]
- % Control CHEAL (CHEAL [2]; MST 1.5 g ai/ha alone): 78%
- % Control CHEAL (CHEAL [2]; MST 3 g ai/ha alone): 85%
- % Control CHEAL (CHEAL [2]; MST 6 g ai/ha alone): 92%
- % Control CHEAL (CHEAL [2]; MST 12 g ai/ha alone): 93%
- % Control CHEAL (CHEAL [2]; MST 24 g ai/ha alone): 93%
- % Control CHEAL (CHEAL [2]; MST 60 g ai/ha alone): 90%
- control, Grasses (Grasses; Mesotrione 105 g/ha): 35%
- % Control ABUTH (ABUTH; MST 1.5 g ai/ha alone): 85%
- % Control ABUTH (ABUTH; MST 3 g ai/ha alone): 83%
- % Control ABUTH (ABUTH; MST 6 g ai/ha alone): 95%
- % Control ABUTH (ABUTH; MST 12 g ai/ha alone): 92%
- % Control ABUTH (ABUTH; MST 24 g ai/ha alone): 96%
- % Control ABUTH (ABUTH; MST 60 g ai/ha alone): 92%
- control, SSBL (AMAPA, CHEAL, AMBEL) ([3]; Mesotrione 105 g/ha): 26%
- control, All weeds (All weeds; Mesotrione 105 g/ha): 44%
- % Control AMAPA (AMAPA [5]; MST 1.5 g ai/ha alone): 20%
- % Control AMAPA (AMAPA [5]; MST 3 g ai/ha alone): 30%
- % Control AMAPA (AMAPA [5]; MST 6 g ai/ha alone): 37%
- % Control AMAPA (AMAPA [5]; MST 12 g ai/ha alone): 72%
- % Control AMAPA (AMAPA [5]; MST 24 g ai/ha alone): 85%
- % Control AMAPA (AMAPA [5]; MST 60 g ai/ha alone): 85%

Compound: bicyclopyrone
- % Control AMAPA (AMAPA [1]; BIR 1.56 g ai/ha alone): 27%
- % Control AMAPA (AMAPA [1]; BIR 3.13 g ai/ha alone): 37%
- % Control AMAPA (AMAPA [1]; BIR 6.25 g ai/ha alone): 48%
- % Control AMAPA (AMAPA [1]; BIR 12.5 g ai/ha alone): 53%
- % Control AMAPA (AMAPA [1]; BIR 25 g ai/ha alone): 80%
- % Control AMAPA (AMAPA [1]; BIR 50 g ai/ha alone): 90%
- % Control SETFA (SETFA; BIR 3.13 g ai/ha alone, 7 Days after Treatment): 28%
- % Control SETFA (SETFA; BIR 3.13 g ai/ha alone, 14 Days after Treatment): 23%
- % Control SETFA (SETFA; BIR 6.25 g ai/ha alone, 7 Days after Treatment): 35%
- % Control SETFA (SETFA; BIR 6.25 g ai/ha alone, 14 Days after Treatment): 32%
- % Control SETFA (SETFA; BIR 12.5 g ai/ha alone, 7 Days after Treatment): 62%
- % Control SETFA (SETFA; BIR 12.5 g ai/ha alone, 14 Days after Treatment): 45%
- % Control SETFA (SETFA; BIR 25 g ai/ha alone, 7 Days after Treatment): 73%
- % Control SETFA (SETFA; BIR 25 g ai/ha alone, 14 Days after Treatment): 58%
- % Control SETFA (SETFA; BIR 50 g ai/ha alone, 7 Days after Treatment): 78%
- % Control SETFA (SETFA; BIR 50 g ai/ha alone, 14 Days after Treatment): 75%
- % Control SETFA (SETFA; BIR 100 g ai/ha alone, 7 Days after Treatment): 77%
- % Control SETFA (SETFA; BIR 100 g ai/ha alone, 14 Days after Treatment): 90%
- % Control CHEAL (CHEAL [4]; BIR 1.56 g ai/ha alone): 58%
- % Control CHEAL (CHEAL [4]; BIR 3.13 g ai/ha alone): 75%
- % Control CHEAL (CHEAL [4]; BIR 6.25 g ai/ha alone): 88%
- % Control CHEAL (CHEAL [4]; BIR 12.5 g ai/ha alone): 92%
- % Control CHEAL (CHEAL [4]; BIR 25 g ai/ha alone): 96%
- % Control CHEAL (CHEAL [4]; BIR 50 g ai/ha alone): 97%
